Test results published in patent US11142525B2 (Pfizer Inc., priority 2018, dated 2021).
pIC50, pKi: −log10 of the molar value.

What was measured:
[1] = target: human full-length recombinant HPK1 (Homo sapiens (Human), UniProt Q92918); assay: HPK1 biochemical enzyme assay, microfluidic mobility shift assay (MSA); settings: HPK1 mobility shift assay; read-out: HPK1 Enzyme Assay_Ki
[2] = tested on: phospho-SLP-76 (Ser376) in Jurkat cells; assay: Phospho-SLP-76 (Ser376) Homogeneous Time Resolved Fluorescence (HTRF) assay in Jurkat cells; assay type: cell-based; settings: Homo sapiens, Phospho-SLP-76 (Ser376) HTRF, anti-CD3 stimulation, read-out: SLP76 Assay_IC50
In short: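 Phospho-SLP-76 in lysates was read by sandwich HTRF and IC50 derived by four-parameter nonlinear regression. Before lysis, cells had received compound for 30 min (11-point, 3-fold series from 10 μM, 0.1% DMSO), followed by anti-CD3 F(ab)2 complex (200 μg/mL, 15 min, 37 °C).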

human full-length recombinant HPK1, sequence (Q92918 whole entry): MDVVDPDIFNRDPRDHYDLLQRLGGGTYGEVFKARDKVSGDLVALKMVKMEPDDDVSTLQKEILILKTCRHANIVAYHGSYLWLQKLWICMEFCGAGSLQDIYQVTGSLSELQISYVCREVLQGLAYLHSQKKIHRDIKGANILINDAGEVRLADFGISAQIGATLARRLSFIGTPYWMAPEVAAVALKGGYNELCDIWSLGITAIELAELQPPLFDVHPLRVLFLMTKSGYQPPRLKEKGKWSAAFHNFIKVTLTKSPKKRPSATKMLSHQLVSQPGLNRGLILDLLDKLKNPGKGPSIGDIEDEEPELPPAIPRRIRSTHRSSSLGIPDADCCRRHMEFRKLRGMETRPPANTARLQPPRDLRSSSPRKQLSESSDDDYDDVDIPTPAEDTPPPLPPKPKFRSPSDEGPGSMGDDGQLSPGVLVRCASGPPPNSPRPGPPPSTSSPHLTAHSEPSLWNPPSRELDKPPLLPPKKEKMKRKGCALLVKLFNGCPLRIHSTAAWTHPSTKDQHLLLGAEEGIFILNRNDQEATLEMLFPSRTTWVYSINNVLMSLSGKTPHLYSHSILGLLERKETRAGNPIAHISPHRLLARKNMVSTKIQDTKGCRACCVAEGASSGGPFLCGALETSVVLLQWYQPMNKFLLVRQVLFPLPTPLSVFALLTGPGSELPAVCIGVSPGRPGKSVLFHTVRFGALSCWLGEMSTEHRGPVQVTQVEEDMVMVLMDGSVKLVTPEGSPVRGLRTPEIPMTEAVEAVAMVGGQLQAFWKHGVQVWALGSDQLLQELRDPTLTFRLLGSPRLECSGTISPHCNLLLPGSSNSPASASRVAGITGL

CCn1cnnc1-c1cccc(N2Cc3c(cc(N4[C@H](C)CC[C@H]4C)nc3CNC)C2=O)n1 [Example 106, 6-[(2R,5R)-2,5-dimethylpyrrolidin-1-yl]-2-[6-(4-ethyl-4H-1,2,4-triazol-3-yl)pyridin-2-yl]-4-[(methylamino)methyl]-2,3-dihydro-1H-pyrrolo[3,4-c]pyridin-1-one]
pKi [1]: 9.59 | pIC50 [2]: 7.08

CC(C)n1cnnc1-c1cccc(N2Cc3c(cc(N4CCC[C@H]4C)nc3CN)C2=O)n1 [Example 107, 4-(aminomethyl)-6-[(2R)-2-methylpyrrolidin-1-yl]-2-{6-[4-(propan-2-yl)-4H-1,2,4-triazol-3-yl]pyridin-2-yl}-2,3-dihydro-1H-pyrrolo[3,4-c]pyridin-1-one]
pKi [1]: 10.40 | pIC50 [2]: 7.66

CCN(c1cc2c(c(CNC)n1)CN(c1cccc(-c3nncn3C)n1)C2=O)C(C)C [Example 108, 6-[ethyl(propan-2-yl)amino]-4-[(methylamino)methyl]-2-[6-(4-methyl-4H-1,2,4-triazol-3-yl)pyridin-2-yl]-2,3-dihydro-1H-pyrrolo[3,4-c]pyridin-1-one]
pKi [1]: 8.43 | pIC50 [2]: 6.23

CNCc1nc(N2CCCC2(C)C)cc2c1CN(c1cccc(-c3nncn3C(C)C)n1)C2=O [Example 109, 6-(2,2-dimethylpyrrolidin-1-yl)-4-[(methylamino)methyl]-2-{6-[4-(propan-2-yl)-4H-1,2,4-triazol-3-yl]pyridin-2-yl}-2,3-dihydro-1H-pyrrolo[3,4-c]pyridin-1-one]
pKi [1]: 10.22 | pIC50 [2]: 7.92

CCn1cnnc1-c1cccc(N2Cc3c(cc(N4[C@H](C)CC[C@H]4C)nc3CN)C2=O)n1 [Example 110, 4-(aminomethyl)-6-[(2R,5R)-2,5-dimethylpyrrolidin-1-yl]-2-[6-(4-ethyl-4H-1,2,4-triazol-3-yl)pyridin-2-yl]-2,3-dihydro-1H-pyrrolo[3,4-c]pyridin-1-one]
pKi [1]: 9.49 | pIC50 [2]: 7.07

CCn1c(C)nnc1-c1cccc(N2Cc3c(cc(N4[C@H](C)CC[C@H]4C)nc3CNC)C2=O)n1 [Example 111, 6-[(2R,5R)-2,5-dimethylpyrrolidin-1-yl]-2-[6-(4-ethyl-5-methyl-4H-1,2,4-triazol-3-yl)pyridin-2-yl]-4-[(methylamino)methyl]-2,3-dihydro-1H-pyrrolo[3,4-c]pyridin-1-one]
pKi [1]: 9.00 | pIC50 [2]: 6.83

CNCc1nc(N2C[C@@H](C)O[C@@H](C)C2)cc2c1CN(c1cccc(-c3nncn3C(C)C)n1)C2=O [Example 112, 6-[2,6-dimethylmorpholin-4-yl]-4-[(methylamino)methyl]-2-{6-[4-(propan-2-yl)-4H-1,2,4-triazol-3-yl]pyridin-2-yl}-2,3-dihydro-1H-pyrrolo[3,4-c]pyridin-1-one]
pKi [1]: 8.83 | pIC50 [2]: 6.37

CCCn1cnnc1-c1cccc(N2Cc3c(cc(N4CCC[C@H]4C(F)(F)F)nc3CNC)C2=O)n1 [Example 113, 4-[(methylamino)methyl]-2-[6-(4-propyl-4H-1,2,4-triazol-3-yl)pyridin-2-yl]-6-[(2S)-2-(trifluoromethyl)pyrrolidin-1-yl]-2,3-dihydro-1H-pyrrolo[3,4-c]pyridin-1-one]
pKi [1]: 9.66 | pIC50 [2]: 7.08

CCn1cnnc1-c1cccc(N2Cc3c(cc(N4CCC[C@@H]4C)nc3CNC)C2=O)n1 [Example 114, 2-[6-(4-ethyl-4H-1,2,4-triazol-3-yl)pyridin-2-yl]-4-[(methylamino)methyl]-6-[(2S)-2-methylpyrrolidin-1-yl]-2,3-dihydro-1H-pyrrolo[3,4-c]pyridin-1-one]
pKi [1]: 9.92 | pIC50 [2]: 7.43

CCn1cnnc1-c1cccc(N2Cc3c(cc(N4CCC[C@H]4C)nc3CNC)C2=O)n1 [Example 115, 2-[6-(4-ethyl-4H-1,2,4-triazol-3-yl)pyridin-2-yl]-4-[(methylamino)methyl]-6-[(2R)-2-methylpyrrolidin-1-yl]-2,3-dihydro-1H-pyrrolo[3,4-c]pyridin-1-one]
pKi [1]: > 10.05 | pIC50 [2]: 7.68
